# Assay results taken from ChEMBL document CHEMBL1133474, “Role of hydrophobic interactions in binding S-(N-aryl/alkyl-N-hydroxycarbamoyl)glutathiones to the active site of the antitumor target enzyme glyoxalase I” (J Med Chem, 2000).
# Target: Lactoylglutathione lyase (Homo sapiens, UniProt Q04760)
# Experiment: Binding affinity for Glyoxalase I
# Lactoylglutathione lyase, sequence (Q04760 whole entry): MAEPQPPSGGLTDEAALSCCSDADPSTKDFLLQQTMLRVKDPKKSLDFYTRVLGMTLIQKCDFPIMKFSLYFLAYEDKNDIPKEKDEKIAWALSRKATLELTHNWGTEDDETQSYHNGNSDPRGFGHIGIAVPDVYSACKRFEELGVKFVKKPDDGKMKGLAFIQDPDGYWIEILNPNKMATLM
row,Compound,Ki
1,CCCCN(O)C(=O)SC[C@H](NC(=O)CC[C@H](N)C(=O)O)C(=O)NCC(=O)O,180 nM
2,CCCN(O)C(=O)SC[C@H](NC(=O)CC[C@H](N)C(=O)O)C(=O)NCC(=O)O,800 nM
3,CCCCCN(O)C(=O)SC[C@H](NC(=O)CC[C@H](N)C(=O)O)C(=O)NCC(=O)O,170 nM
4,CCN(O)C(=O)SC[C@H](NC(=O)CC[C@H](N)C(=O)O)C(=O)NCC(=O)O,1180 nM

# Continued by falling Ki, values first:
row,Ki,Compound
1,183000 nM,N[C@@H](CCC(=O)N[C@@H](CSC(=O)NO)C(=O)NCC(=O)O)C(=O)O
2,1700 nM,CN(O)C(=O)SC[C@H](NC(=O)CC[C@H](N)C(=O)O)C(=O)NCC(=O)O
3,18 nM,CCCCCCCN(O)C(=O)SC[C@H](NC(=O)CC[C@H](N)C(=O)O)C(=O)NCC(=O)O
4,16 nM,CCCCCCN(O)C(=O)SC[C@H](NC(=O)CC[C@H](N)C(=O)O)C(=O)NCC(=O)O
